Measured values taken from patent US20060035925A1, “SUBSTITUTED 4H-CHROMENES AND ANALOGS AS ACTIVATORS OF CASPASES AND INDUCERS OF APOPTOSIS AND THE USE THEREOF” (Cytovia, Inc., priority 1999, published 2006).
Where two headings read alike, the source gives them in different places.

How the values were obtained:
[1] = tested on: Human breast cancer cell line T-47D; assay: Caspase cascade activation assay (N-(Ac-DEVD)-N'-ethoxycarbonyl-R110 fluorogenic substrate) in T-47D cells; type: cell-based; details: for Caspase activity (Ratio) T-47D: 24 h incubation with compound, ratio of net RFU (T=3 h) of test compound to control; for EC50: 24 h incubation, sigmoidal dose-response, read-out: Caspase potency EC50 (nM) T-47D
Procedure: (§1) Human breast cancer cell lines T-47D and ZR-75-1 were grown according to media component mixtures designated by American Type Culture Collection +10% FCS (Invitrogen Corporation), in a 5% CO2-95% humidity incubator at 37° C. T-47D and ZR-75-1 cells were maintained at a cell density between 30 and 80% confluency at a cell density of 0.1 to 0.6×10^6 cells/ml. Cells were harvested at 600×g and resuspended at 0.65×10^6 cells/mL into appropriate media +10% FCS. An aliquot of 45 μl of cells was added to a well of a 96-well microtiter plate containing 5 μl of a 10% DMSO in RPMI-1640 media solution containing 0.16 to 10 μM of 2-amino-3-cyano-4-(3-bromo-4,5-dimethoxyphenyl)-4H-indolo[7,6-b]pyran (Example 42) or other test compound (0.016 to 1 μM final). An aliquot of 45 μl of cells was added to a well of a 96-well microtiter plate containing 5 μl of a 10% DMSO in RPMI-1640 media solution without test compound as the control sample. The samples were mixed by agitation and then incubated at 37° C. for 24 h in a 5% CO2-95% humidity incubator. After incubation, the samples were removed from the incubator and 50 μl of a solution containing 20 μM of N-(Ac-DEVD)-N′-ethoxycarbonyl-R110 (SEQ ID NO:1) fluorogenic substrate (Cytovia, Inc.; WO99/18856), 20% sucrose (Sigma), 20 mM DTT (Sigma), 200 mM NaCl (Sigma), 40 mM Na PIPES buffer pH 7.2 (Sigma), and 500 μg/ml lysolecithin (Calbiochem) was added. The samples were mixed by agitation and incubated at room temperature. Using a fluorescent plate reader (Model 1420 Wallac Instruments), an initial reading (T=0) was made approximately 1-2 min after addition of the substrate solution, employing excitation at 485 nm and emission at 530 nm, to determine the background fluorescence of the control sample. After the 3 h incubation, the samples were read for fluorescence as above (T=3 h).
(§2) The Relative Fluorescence Unit values (RFU) were used to calculate the sample readings as follows: RFU(T=3h)−Control RFU(T=0)=Net RFU(T=3h)
(§3) The activity of caspase cascade activation was determined by the ratio of the net RFU value for 2-amino-3-cyano-4-(3-bromo-4,5-dimethoxyphenyl)-4H-indolo[7,6-b]pyran or other test compound to that of control samples. The EC50 (nM) was determined by a sigmoidal dose-response calculation (Prism 2.0, GraphPad Software Inc.).

[2] = tested on: Human breast cancer cell line ZR-75-1; assay: Caspase cascade activation assay (N-(Ac-DEVD)-N'-ethoxycarbonyl-R110 fluorogenic substrate) in ZR-75-1 cells; type: cell-based; details: ZR-75-1 cells; for EC50: 24 h incubation, sigmoidal dose-response, read-out: Caspase potency EC50 (nM) ZR-75-1; for Caspase activity (Ratio) ZR-75-1: 24 h incubation with compound, ratio of net RFU (T=3 h) of test compound to control
Procedure: as §1, §2, §3

Row | EC50 ([1]; Homo sapiens, T47D, 24 h) [nM] | EC50 ([2]; Homo sapiens, ZR-75-1, 24 h) [nM] | EC50 [1] [nM] | EC50 [2] [nM] | Caspase potency EC50 (nM) T-47D, Table II ([1]; additional compounds, Table II) | Caspase potency EC50 (nM) ZR-75-1, Table II ([2]; additional compounds, Table II) | Structure (SMILES) | Caspase activity (Ratio) T-47D [1] | Caspase activity (Ratio) ZR-75-1 [2] | Caspase activity (Ratio) T-47D, Table II ([1]; additional compounds, Table II) | Caspase activity (Ratio) ZR-75-1, Table II ([2]; additional compounds, Table II)
1 | 78 | 50 | – | – | – | – | N#CC1=C(N)Oc2cc(N)ccc2C1c1cc(Cl)cc(Cl)c1 (stereo not drawn) [Example 2D, 2-Amino-3-cyano-7-amino-4-(3,5-dichlorophenyl)-4H-chromene] | 4.4 | 4.4 | – | –
2 | 4800 | 2480 | – | – | – | – | N#CC1=C(N)Oc2cc(N)ccc2C1c1cccc(Cl)c1 (stereo not drawn) [Example 22, 2,7-Diamino-3-cyano-4-(3-chlorophenyl)-4H-chromene] | 5.8 | 8.0 | – | –
3 | 27.7 | 23.9 | – | – | – | – | COc1cc(C2C(C#N)=C(N)Oc3c2ccc2ccn(C)c32)cc(Br)c1OC (stereo not drawn) [Example 77, 2-Amino-4-(3-bromo-4,5-dimethoxyphenyl)-3-cyano-9-methyl-4H-pyrrolo[3,2-h]chromene] | 4.2 | 3.1 | – | –
4 | 37 | 46 | – | – | – | – | COc1ccc2c(c1)OC(N)=C(C#N)C2c1cccc(C#N)c1 (stereo not drawn) [Example 5, 2-Amino-3-cyano-7-methoxy-4-(3-cyanophenyl)-4H-chromene] | 6.9 | 7.1 | – | –
5 | 29 | 16 | – | – | – | – | COc1ccc2c(c1)OC(N)=C(C#N)C2c1cc(OC)c(OC)c(OC)c1 (stereo not drawn) [Example 3, 2-Amino-3-cyano-7-methoxy-4-(3,4,5-trimethoxyphenyl)-4H-chromene] | 8.4 | 4.5 | – | –
6 | – | – | 50.5 | 21.5 | – | – | COc1cc(C2C(C#N)=C(N)Oc3c2ccc2[nH]c(=O)[nH]c32)cc(Br)c1OC (stereo not drawn) [Example 80, 2-Amino-3-cyano-4-(3-bromo-4,5-dimethoxy-phenyl)-8-oxo-4,7,8,9-tetrahydroimidazo[4,5-h]chromene] | 8.8 | 7.5 | – | –
7 | 463 | 325 | – | – | – | – | N#CC1=C(N)Oc2cc(N)ccc2C1c1cccc([N+](=O)[O-])c1 (stereo not drawn) [Example 25, 2,7-Diamino-3-cyano-4-(3-nitrophenyl)-4H-chromene] | 6.1 | 9.7 | – | –
8 | – | – | – | – | Inactive | Inactive | CCC(C)C(=O)Nc1ccc2c(c1)OC(N)=C(C#N)C2c1cc(Br)c(OC)c(OC)c1 (stereo not drawn) [2-Amino-3-cyano-7-(2-methylbutanoylamino)-4-(3-bromo-4,5-dimethoxyphenyl)-4H-chromene] | – | – | Inactive | Inactive
9 | 36.8 | 23.8 | – | – | – | – | COc1cc(C2C(C#N)=C(N)Oc3cc(N(C)C)ccc32)cc(Br)c1O (stereo not drawn) [Example 48, 2-Amino-4-(3-bromo-4-hydroxy-5-methoxyphenyl)-3-cyano-7-dimethylamino-4H-chromene] | 10.5 | 6.1 | – | –
10 | > 10000 | > 10000 | – | – | – | – | COc1cc(C2C(C#N)=C(N)Oc3c2ccc(O)c3O)cc(Br)c1OC (stereo not drawn) [Example 2C, 2-Amino-3-cyano-7,8-dihydroxy-4-(3-bromo-4,5-dimethoxyphenyl)-4H-chromene] | 1.1 | 0.9 | – | –
11 | 158 | 154 | – | – | – | – | COc1ccc2c(c1)OC(N)=C(C#N)C2C1CC=CCC1 (stereo not drawn) [Example 28, 2-Amino-3-cyano-7-methoxy-4-(1,2,3,6-tetrahydrophenyl)-4H-chromene] | 3.4 | 5.2 | – | –
12 | 3 | 8 | – | – | – | – | Cc1cncc(C2C3=CC=C4N=CC=C4C3OC(N)=C2C#N)c1 (stereo not drawn) [Example 35, 2-Amino-3-cyano-4-(5-methyl-3-pyridyl)-4H-indolo[4,5-b]pyran] | 6.9 | 5.5 | – | –
